Assay results: ChEMBL document CHEMBL3351955, “Identification of potent and selective hydantoin inhibitors of aggrecanase-1 and aggrecanase-2 that are efficacious in both chemical and surgical models of osteoarthritis” (J Med Chem, 2014)

What was measured:
[1] = target: T1, A disintegrin and metalloproteinase with thrombospondin motifs 4 (Homo sapiens, UniProt O75173); test: Inhibition of human ADAMTS-4 using VQTVTWPDMELPLPRNITEGEARGSVILTVKPIFEVSPSPLKG peptide substrate by AlphaScreen assay
T1 sequence (O75173 whole entry): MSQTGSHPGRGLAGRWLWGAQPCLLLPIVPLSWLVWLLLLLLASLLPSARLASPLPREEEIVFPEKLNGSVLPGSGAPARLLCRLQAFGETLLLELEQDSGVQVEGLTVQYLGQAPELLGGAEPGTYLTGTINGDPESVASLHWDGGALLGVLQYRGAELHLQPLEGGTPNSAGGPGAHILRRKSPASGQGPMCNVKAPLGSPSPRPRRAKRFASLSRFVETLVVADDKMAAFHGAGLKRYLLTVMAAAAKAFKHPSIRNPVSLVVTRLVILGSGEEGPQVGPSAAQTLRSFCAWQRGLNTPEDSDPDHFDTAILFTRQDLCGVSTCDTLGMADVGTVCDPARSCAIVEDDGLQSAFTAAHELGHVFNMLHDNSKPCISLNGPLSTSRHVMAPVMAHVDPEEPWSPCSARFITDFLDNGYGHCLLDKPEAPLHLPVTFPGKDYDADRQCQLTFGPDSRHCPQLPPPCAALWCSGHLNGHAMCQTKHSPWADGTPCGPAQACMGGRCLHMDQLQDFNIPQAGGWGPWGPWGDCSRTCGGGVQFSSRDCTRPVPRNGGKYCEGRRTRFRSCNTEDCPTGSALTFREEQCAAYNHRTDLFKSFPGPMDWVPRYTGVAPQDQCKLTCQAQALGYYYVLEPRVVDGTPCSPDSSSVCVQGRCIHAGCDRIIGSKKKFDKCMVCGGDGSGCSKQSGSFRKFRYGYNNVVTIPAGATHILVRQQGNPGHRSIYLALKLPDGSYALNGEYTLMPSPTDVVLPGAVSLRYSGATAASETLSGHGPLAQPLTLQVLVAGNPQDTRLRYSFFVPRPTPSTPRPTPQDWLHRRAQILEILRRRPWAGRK

[2] = target: T2, A disintegrin and metalloproteinase with thrombospondin motifs 5 (Homo sapiens, UniProt Q9UNA0); test: Inhibition of human ADAMTS-5 using VQTVTWPDMELPLPRNITEGEARGSVILTVKPIFEVSPSPLKG peptide substrate by AlphaScreen assay
T2 sequence (Q9UNA0 whole entry): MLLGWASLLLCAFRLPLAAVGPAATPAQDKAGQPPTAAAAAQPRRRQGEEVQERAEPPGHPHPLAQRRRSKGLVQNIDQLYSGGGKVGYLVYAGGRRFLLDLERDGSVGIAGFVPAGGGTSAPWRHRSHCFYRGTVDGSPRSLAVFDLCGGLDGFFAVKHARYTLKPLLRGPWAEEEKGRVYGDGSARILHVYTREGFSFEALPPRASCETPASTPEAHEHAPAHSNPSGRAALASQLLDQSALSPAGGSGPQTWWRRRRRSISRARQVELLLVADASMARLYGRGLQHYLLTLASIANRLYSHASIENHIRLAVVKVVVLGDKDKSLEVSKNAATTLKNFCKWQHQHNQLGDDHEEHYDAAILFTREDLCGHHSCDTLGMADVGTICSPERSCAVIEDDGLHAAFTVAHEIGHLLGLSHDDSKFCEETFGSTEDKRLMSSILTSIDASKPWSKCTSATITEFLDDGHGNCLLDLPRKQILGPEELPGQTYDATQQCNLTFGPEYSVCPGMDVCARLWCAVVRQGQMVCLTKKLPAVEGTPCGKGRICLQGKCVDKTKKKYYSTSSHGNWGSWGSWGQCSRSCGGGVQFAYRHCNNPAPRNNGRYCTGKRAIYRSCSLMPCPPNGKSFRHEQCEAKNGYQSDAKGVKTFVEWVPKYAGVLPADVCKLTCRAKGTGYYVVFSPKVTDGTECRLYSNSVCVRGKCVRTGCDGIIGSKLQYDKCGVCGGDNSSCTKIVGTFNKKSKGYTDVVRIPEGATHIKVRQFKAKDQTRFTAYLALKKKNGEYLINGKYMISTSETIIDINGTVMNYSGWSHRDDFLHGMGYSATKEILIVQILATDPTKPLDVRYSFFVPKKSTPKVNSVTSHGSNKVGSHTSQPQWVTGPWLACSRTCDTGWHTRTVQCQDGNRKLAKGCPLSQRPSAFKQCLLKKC

[3] = target: T2, A disintegrin and metalloproteinase with thrombospondin motifs 5; test: Inhibition of human ADAMTS-5 using VQTVTWPDMELPLPRNITEGEARGSVILTVKPIFEVSPSPLKG peptide substrate by AlphaScreen assay in presence of 50% rat plasma
[4] = target: 72 kDa type IV collagenase (Homo sapiens, UniProt P08253); test: Inhibition of human MMP2 using Mca-PQG1 peptide substrate assessed as substrate cleavage after 2 to 4 hrs
Stromelysin-1 = Stromelysin-1 (Homo sapiens, UniProt P08254); test: Inhibition of human MMP3 using Mca-PQG1 peptide substrate assessed as substrate cleavage after 2 to 4 hrs
Collagenase 3 = Collagenase 3 (Homo sapiens, UniProt P45452); test: Inhibition of human MMP13 using Mca-PQG1 peptide substrate assessed as substrate cleavage after 2 to 4 hrs
[5] = target: Matrix metalloproteinase-14 (Homo sapiens, UniProt P50281); test: Inhibition of human MMP14 using Mca-PQG1 peptide substrate assessed as substrate cleavage after 2 to 4 hrs
[6] = target: Disintegrin and metalloproteinase domain-containing protein 17 (Homo sapiens, UniProt P78536); test: Inhibition of human TACE using Mca-PQG1 peptide substrate assessed as substrate cleavage after 2 to 4 hrs
[7] = Plasma concentration in rat at 10 mg/kg, po after 2 hrs; format: ADME, organism-based; design: dose 10 mg/kg, route oral
[8] = Plasma concentration in rat at 10 mg/kg, po after 8 hrs; format: ADME, organism-based; design: dose 10 mg/kg, route oral
Rattus norvegicus [9] = test: Reduction in ADAMTS-4/ADAMTS-5-mediated aggrecan cleavage products in po dosed Lewis rat MIA model assessed as aggrecanase-cleaved fragments treatment starting from day 3 and single dose given on day 7 followed by animal sacrificed 4 hrs later by NITEGE sandwich ELISA assay; format: functional
Rattus norvegicus [10] = organism: Rattus norvegicus; test: Reduction in meniscal tear-induced osteoarthritis total joint score in chronic BID Lewis rat surgical model; format: functional, organism-based
[11] = AUC in Sprague-Dawley rat at 10 mg/kg, po; format: ADME, organism-based; design: dose 10 mg/kg, route oral; settings: plasma
[12] = Cmax in Sprague-Dawley rat at 10 mg/kg, po; format: ADME, organism-based; design: dose 10 mg/kg, route oral; settings: in vivo
[13] = Tmax in Sprague-Dawley rat at 10 mg/kg, po; format: ADME, organism-based; design: dose 10 mg/kg, route oral; settings: in vivo
[14] = Half life in Sprague-Dawley rat at 10 mg/kg, po; format: ADME, organism-based; design: dose 10 mg/kg, route oral; settings: in vivo
[15] = Clearance in Sprague-Dawley rat; format: ADME, organism-based; settings: in vivo
[16] = Oral bioavailability in Sprague-Dawley rat; format: ADME, organism-based; settings: in vivo
Cytochrome P450 2D6 = Cytochrome P450 2D6 (Homo sapiens, UniProt P10635); test: Inhibition of human CYP2D6; format: ADME
Cytochrome P450 2C9 = Cytochrome P450 2C9 (Homo sapiens, UniProt P11712); test: Inhibition of human CYP2C9; format: ADME
Cytochrome P450 3A4 = Cytochrome P450 3A4 (Homo sapiens, UniProt P08684); test: Inhibition of human CYP3A4; format: ADME
[17] = Metabolic stability in human liver microsomes assessed as compound degradation after 30 mins by LC-MS analysis; format: ADME, Microsome; settings: read-out: Drug degradation
[18] = Metabolic stability in rat liver microsomes assessed as compound degradation after 30 mins by LC-MS analysis; format: ADME, Microsome; settings: read-out: Drug degradation

Sequence of 72 kDa type IV collagenase (P08253 whole entry): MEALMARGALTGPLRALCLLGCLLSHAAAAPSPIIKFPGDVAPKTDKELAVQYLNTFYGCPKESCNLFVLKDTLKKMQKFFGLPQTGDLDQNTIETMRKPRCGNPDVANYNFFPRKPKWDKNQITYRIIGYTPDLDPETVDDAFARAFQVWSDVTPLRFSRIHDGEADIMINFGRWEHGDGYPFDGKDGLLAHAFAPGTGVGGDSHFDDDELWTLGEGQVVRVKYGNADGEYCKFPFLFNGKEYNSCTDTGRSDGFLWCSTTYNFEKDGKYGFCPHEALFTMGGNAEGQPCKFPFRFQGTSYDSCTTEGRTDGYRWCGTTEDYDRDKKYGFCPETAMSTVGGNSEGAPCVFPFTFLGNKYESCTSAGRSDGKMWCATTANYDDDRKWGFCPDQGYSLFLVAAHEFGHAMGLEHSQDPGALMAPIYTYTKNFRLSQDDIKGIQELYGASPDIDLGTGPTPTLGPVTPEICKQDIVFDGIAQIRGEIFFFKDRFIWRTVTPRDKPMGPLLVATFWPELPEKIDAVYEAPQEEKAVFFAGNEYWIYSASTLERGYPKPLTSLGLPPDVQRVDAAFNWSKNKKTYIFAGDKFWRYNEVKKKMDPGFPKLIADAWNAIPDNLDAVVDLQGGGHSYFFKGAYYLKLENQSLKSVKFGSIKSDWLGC
Sequence of Stromelysin-1 (P08254 whole entry): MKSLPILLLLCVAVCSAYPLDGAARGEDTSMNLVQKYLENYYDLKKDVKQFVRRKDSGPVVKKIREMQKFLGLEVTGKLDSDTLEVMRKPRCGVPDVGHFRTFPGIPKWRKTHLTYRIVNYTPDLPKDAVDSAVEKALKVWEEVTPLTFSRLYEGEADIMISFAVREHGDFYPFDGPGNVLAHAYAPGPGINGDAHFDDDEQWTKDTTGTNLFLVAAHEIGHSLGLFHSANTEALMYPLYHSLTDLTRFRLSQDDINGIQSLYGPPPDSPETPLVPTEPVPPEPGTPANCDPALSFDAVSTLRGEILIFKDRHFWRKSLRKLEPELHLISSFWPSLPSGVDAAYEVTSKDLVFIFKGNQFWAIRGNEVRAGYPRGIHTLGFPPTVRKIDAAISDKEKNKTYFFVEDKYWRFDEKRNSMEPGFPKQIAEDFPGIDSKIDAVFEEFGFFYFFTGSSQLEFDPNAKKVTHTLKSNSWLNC
Sequence of Disintegrin and metalloproteinase domain-containing protein 17 (P78536 whole entry, the tested form may be a part): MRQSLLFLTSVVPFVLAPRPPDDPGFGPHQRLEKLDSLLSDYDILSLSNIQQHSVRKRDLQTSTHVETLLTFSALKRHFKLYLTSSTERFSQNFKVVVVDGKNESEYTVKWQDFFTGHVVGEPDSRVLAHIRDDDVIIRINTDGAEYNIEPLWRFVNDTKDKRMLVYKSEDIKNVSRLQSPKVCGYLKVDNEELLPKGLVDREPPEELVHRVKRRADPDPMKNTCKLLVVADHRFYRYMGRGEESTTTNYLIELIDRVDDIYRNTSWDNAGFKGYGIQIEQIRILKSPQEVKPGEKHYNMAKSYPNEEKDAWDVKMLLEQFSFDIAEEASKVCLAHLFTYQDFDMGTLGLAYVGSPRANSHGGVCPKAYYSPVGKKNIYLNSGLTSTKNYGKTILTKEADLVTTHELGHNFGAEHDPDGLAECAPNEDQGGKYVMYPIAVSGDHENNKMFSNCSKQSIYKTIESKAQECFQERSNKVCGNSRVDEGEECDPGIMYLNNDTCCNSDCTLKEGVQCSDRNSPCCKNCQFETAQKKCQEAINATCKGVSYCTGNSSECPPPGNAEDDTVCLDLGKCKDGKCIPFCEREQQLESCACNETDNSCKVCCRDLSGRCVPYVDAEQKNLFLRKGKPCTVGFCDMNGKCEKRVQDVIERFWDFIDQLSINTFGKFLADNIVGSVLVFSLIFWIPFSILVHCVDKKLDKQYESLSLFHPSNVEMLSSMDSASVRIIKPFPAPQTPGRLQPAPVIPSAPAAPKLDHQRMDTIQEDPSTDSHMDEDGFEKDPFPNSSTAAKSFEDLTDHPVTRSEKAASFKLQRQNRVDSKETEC
Sequence of Cytochrome P450 2D6 (P10635 whole entry): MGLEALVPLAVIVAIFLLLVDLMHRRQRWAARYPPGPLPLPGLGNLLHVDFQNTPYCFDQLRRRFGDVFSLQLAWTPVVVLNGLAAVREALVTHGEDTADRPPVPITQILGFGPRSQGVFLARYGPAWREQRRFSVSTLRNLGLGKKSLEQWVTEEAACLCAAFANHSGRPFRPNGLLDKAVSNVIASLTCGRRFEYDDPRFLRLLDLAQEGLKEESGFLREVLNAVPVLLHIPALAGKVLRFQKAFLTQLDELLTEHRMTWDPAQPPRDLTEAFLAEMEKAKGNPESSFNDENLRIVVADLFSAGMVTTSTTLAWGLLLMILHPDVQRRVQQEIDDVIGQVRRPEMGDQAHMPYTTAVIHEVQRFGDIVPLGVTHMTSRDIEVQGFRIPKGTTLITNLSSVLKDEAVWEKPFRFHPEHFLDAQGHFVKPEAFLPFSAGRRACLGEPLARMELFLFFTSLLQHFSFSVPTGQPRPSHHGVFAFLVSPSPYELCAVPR
Sequence of Cytochrome P450 3A4 (P08684 whole entry): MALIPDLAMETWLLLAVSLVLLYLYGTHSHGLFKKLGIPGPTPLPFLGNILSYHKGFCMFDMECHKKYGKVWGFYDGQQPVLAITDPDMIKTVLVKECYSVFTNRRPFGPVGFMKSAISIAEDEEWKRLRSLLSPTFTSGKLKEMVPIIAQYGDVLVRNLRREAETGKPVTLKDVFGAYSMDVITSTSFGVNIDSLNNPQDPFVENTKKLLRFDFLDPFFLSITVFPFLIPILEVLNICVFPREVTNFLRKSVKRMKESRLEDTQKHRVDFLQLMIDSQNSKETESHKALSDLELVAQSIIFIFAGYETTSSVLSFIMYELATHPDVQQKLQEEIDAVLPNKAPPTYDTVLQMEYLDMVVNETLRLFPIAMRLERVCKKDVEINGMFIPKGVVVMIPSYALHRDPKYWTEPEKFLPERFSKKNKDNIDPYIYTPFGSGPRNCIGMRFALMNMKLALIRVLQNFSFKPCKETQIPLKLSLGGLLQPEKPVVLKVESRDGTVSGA
Sequence of Cytochrome P450 2C9 (P11712 whole entry): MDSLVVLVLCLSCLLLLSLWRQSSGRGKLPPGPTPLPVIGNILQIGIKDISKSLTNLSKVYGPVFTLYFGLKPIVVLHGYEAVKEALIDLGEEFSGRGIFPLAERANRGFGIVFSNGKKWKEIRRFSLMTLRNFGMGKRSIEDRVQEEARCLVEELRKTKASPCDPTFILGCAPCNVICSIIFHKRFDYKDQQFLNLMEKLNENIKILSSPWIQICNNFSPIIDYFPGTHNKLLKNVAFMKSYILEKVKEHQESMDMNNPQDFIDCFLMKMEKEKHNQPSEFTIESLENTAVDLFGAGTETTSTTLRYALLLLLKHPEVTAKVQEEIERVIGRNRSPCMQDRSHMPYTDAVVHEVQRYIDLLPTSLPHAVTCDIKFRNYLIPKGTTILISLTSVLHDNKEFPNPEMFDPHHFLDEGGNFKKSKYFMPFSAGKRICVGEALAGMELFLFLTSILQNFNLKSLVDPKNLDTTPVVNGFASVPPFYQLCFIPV

| Compound | IC50 [1] [nM] | IC50 [2] [nM] | IC50 [3] [nM] | IC50 [4] [nM] | IC50 (Stromelysin-1) [nM] | IC50 (Collagenase 3) [nM] | IC50 [5] [nM] | IC50 [6] [nM] | concentration at 2 h [7] [ng/mL] | concentration at 8 h [8] [ng/mL] | AUC [11] [ng·h/mL] | Cmax [12] [ng/mL] | Tmax [13] [h] | half-life [14] [h] | clearance [15] [mL/min/kg] | bioavailability [16] [%] | metabolised at 0.5 h [17] [%] | metabolised at 0.5 h [18] [%] | also measured |
| --- | --- | --- | --- | --- | --- | --- | --- | --- | --- | --- | --- | --- | --- | --- | --- | --- | --- | --- | --- |
| C[C@@]1(O)CCCN(S(=O)(=O)c2ccc(OCc3ccc(F)cc3Cl)cc2)[C@H]1C(=O)NO | 1 | 1 | 18 | 5 | 3 | 1 | 150 | 7 | 1900 | 840 | – | – | – | – | – | – | – | – | – |
| C[C@]1(CNC(=O)COc2ccc(Cl)cc2)NC(=O)NC1=O | 74 | 350 | 620 | 24000 | 50000 | 7000 | > 50000 | – | 430 | 50 | – | – | – | – | – | – | – | – | – |
| Cc1cccnc1[C@]1(CNC(=O)c2cc3cc(Cl)ccc3o2)NC(=O)NC1=O (racemic) | 17 | 19 | 1700 | 6100 | 20000 | 3100 | 18000 | – | – | – | – | – | – | – | – | – | – | – | – |
| O=C1NC(=O)[C@](CNC(=O)c2cc3cc(Cl)ccc3o2)(c2ccccc2)N1 | 12 | 22 | 420 | 2100 | 3000 | 720 | 3500 | 5400 | < 200 | – | – | – | – | – | – | – | – | – | – |
| C[C@]1(CNC(=O)c2cc3cc(Cl)ccc3o2)NC(=O)NC1=O (racemic) | 110 | 150 | 2400 | – | – | – | – | – | – | – | – | – | – | – | – | – | – | – | – |
| Cn1nccc1[C@]1(CNC(=O)c2cc3cc(Cl)ccc3o2)NC(=O)NC1=O | 22 | 19 | 530 | 7100 | 64000 | 4700 | 8600 | – | – | – | – | – | – | – | – | – | – | – | – |
| Cn1ccnc1[C@]1(CNC(=O)c2cc3cc(C(F)(F)F)ccc3o2)NC(=O)NC1=O | 4 | 4 | 35 | 11000 | 69000 | 30000 | 86000 | 10000 | 1100 | 90 | 8500 | 3200 | 1.6 | 4.3 | 4.8 | 25 | < 5 | 7 | ED50 (Rattus norvegicus [9]): 30 mg/kg; inhibition (Rattus norvegicus [10]): Dose-dependent effect; inhibition (INH) (Cytochrome P450 2D6): < 5%; inhibition (INH) (Cytochrome P450 2C9): < 5%; inhibition (INH) (Cytochrome P450 3A4): < 5% |
| O=C1NC(=O)[C@](CNC(=O)c2cc3cc(Cl)ccc3o2)(c2nccs2)N1 | – | – | – | – | – | – | – | – | 4300 | 1300 | 28000 | 6900 | 0.33 | 3.2 | 4 | 72 | 16 | 16 | – |
| Cn1ccnc1[C@]1(CNC(=O)c2cc3cc(Cl)ccc3o2)NC(=O)NC1=O | 5 | 9 | 110 | 7500 | 38000 | 4200 | > 100000 | – | 2200 | 80 | 8100 | 4100 | 0.33 | 4.2 | 13 | 58 | 17 | 13 | ED50 (Rattus norvegicus [9]): 75 mg/kg; inhibition (INH) (Cytochrome P450 2D6): < 5%; inhibition (INH) (Cytochrome P450 2C9): < 5%; inhibition (INH) (Cytochrome P450 3A4): < 5% |
